Series [1] can be described thus: In vitro stability in serum. Particulars: up to 120 min at 37 °C. The format is in vitro ADME, human.
A short description of series [2]: Dynamic PET/CT and ex vivo biodistribution in uninfected mice. The note with it: for ex vivo residual activity in organs versus [18F]FDS: heart, lung, stomach, liver, intestine, kidney, muscle, after 90 min PET/CT; for peak uptake (Cmax) in bladder / peak uptake (Cmax) in kidneys / peak uptake (Cmax) in liver: dynamic PET 90 min; for elimination half-life (T1/2β) / plasma distribution half-life (T1/2α): blood pool TAC, two-compartment fit. As to the method:
To assess the effect of [^18F]-FDS glycosylation on tissue uptake in vivo, we performed dynamic PET/CT scans for 90 min after the intravenous injection of [^18F]-FNT, [^18F]-FMT, and [^18F]-FDS in uninfected mice, followed by ex vivo analysis.
(§1) μPET/CT imaging was conducted using a nanoScan μPET/CT instrument (PET123S/CT1512, Mediso). Mice were anesthetized with 2% isoflurane/oxygen for intravenous administration of ^18F-tracers (∼5 MBq in 150 μL) via tail vein and maintained during data acquisition. PET data of uninfected mice were acquired in the list mode for 90 min, starting immediately after ^18F-tracer administration, followed by a CT scan. The PET data were reconstructed into three-dimensional volumes and coregistered with CT images using manufacturer-provided software in 53 dynamic frames (15 × 2 s, 6 × 5 s, 6 × 10 s, 4 × 30 s, 6 × 30 s, and 16 × 300 s). PET data of infected mice were acquired for 20 min, starting at 70 min postinjection of ^18F-tracer (mid time 80 min), followed by a CT scan. The list mode PET data were reconstructed into three-dimensional volumes in a single static frame. All PET scans were corrected for ^18F decay, dead time, and random coincidences and reconstructed into a 160 × 160 × 184 matrix with voxel size 0.8 mm using a three-dimensional ordered subject expectation maximization (OSEM) algorithm (40 iterations, 1 subset). Both attenuation and scatter corrections were applied to PET reconstructions using the coregistered CT. ROIs were drawn manually around the brain, lungs, liver, kidney, and urinary bladder using Amide software to generate image-derived TACs. For the estimation of blood pool radioactivity over time, ROIs were drawn on the left atrium. To estimate the plasma half-life of tracers, the TAC of the blood pool was fitted to a two-compartment model using a biexponential decay function: C t(t) = Ae ^–αt + Be ^ ‑βt , where C t(t) is the tracer concentration (% IDcc^–1) at time (t), A and B are the intercepts, and α and β are the distribution and elimination rate constants, respectively. , Quantitative uptake values are expressed as % IDcc^–1, representing the percent of the total injected dose per cubic centimeter. For the S. aureus myositis model, identical volume ROIs were drawn corresponding to the peak uptake of [^18F]-FNT at the live S. aureus inoculated site and heat-killed S. aureus inoculated site, respectively.

The next series concerns K. pneumoniae. Kind of series: PET/CT in K. pneumoniae pneumonia murine model. In kind it is in vivo, mice. The note with it: for PET signal in heat-killed K. pneumoniae inoculated lungs: 10x heat-killed K. pneumoniae; for ex vivo infected/uninfected lung ratio: ex vivo gamma counting after PET; for ROI-derived infected/uninfected lung ratio: in vivo PET, 80 min postinjection (mid time), 24 h after intranasal K. pneumoniae. On the procedure:
Given promising low background signals in uninfected mice, we further evaluated [^18F]-FNT and [^18F]-FMT in two different clinically relevant mouse models of lung and muscle infections. […] PET scanning was performed at 24 h postintranasal bacterial installation (Figure A). […] The ROI-derived infected/uninfected lung ratios of [^18F]-FDS, [^18F]-FMT, and [^18F]-FNT were approximately 3.2, 6.1, and 5.9-fold, respectively (Figure C), also supported by the ex vivo infected/uninfected lung ratio of [^18F]-FDS (∼1.6-fold), [^18F]-FMT (∼5.7-fold), and [^18F]-FNT (∼5.7-fold) (Figure D). Post-PET scans, infected lungs were harvested to determine colony forming units (CFUs). No significant differences in bacterial counts were observed among [^18F]-FDS, [^18F]-FMT, and [^18F]-FNT (Figure E). To confirm radiotracer specificity, we also evaluated mice inoculated with 10x heat-killed K. pneumoniae into lungs (Supporting Information Figure S5A–C).
All animal procedures were conducted in accordance with UCSF institutional guidelines and were approved by the Institutional Animal Care and Use Committee (IACUC). Female CBA/J mice (9 and 11 weeks old) were used for the study. Pulmonary infection and bacterial myositis models were established based on previously published protocols. , For pulmonary infection, 50 μL of K. pneumoniae (5 × 10^6 CFU) or 10× heat-killed K. pneumoniae were administered intranasally under anesthesia 24 h prior to imaging using PET. After PET scans, infected lungs were homogenized in PBS and plated on LB agar. Plates were incubated overnight at 37 °C to quantify the bacterial burden. For the bacterial myositis model, mice were intramuscularly injected with either 1 × 10^6 CFUs of live S. aureus (MSSA or MRSA) or 1 × 10^7 CFUs of heat-killed bacteria (50 μL) into the left and right deltoid muscles, respectively, 10 h prior to imaging using PET. Immediately following all imaging studies, target tissues were harvested, and radioactivity was measured using a gamma counter.
as §1, with “For the S. aureus myositis model, identical volume ROIs were drawn corresponding to the peak uptake of [^18F]-FNT at the live S. aureus inoculated site and heat-killed S. aureus inoculated site, respectively.” left out

SMILES strings stand for the structures. Several values for one entry are separate records, joined by “and”; a condition that tells them apart may be missing. Identical values can stand only once.

Take `OC[C@@H](O)[C@@H](O[C@H]1O[C@H](CO)[C@@H](O)[C@H](O)[C@H]1O)[C@H](O)[C@@H]([18F])CO` [[18F]FMT, 2-deoxy-2-[18F]fluoro-D-maltitol]: in series [1], the “in vitro stability in human serum” value is given as “intact”. The “ex vivo residual activity in organs versus [18F]FDS” value in series [2] is “significantly lower residual activity”. In series [2] (uninfected mice, i.v.), the “peak uptake (Cmax) in bladder” value is 562.7 ± 31.3 % IDcc^–1, the “peak uptake (Cmax) in kidneys” value was 102.3 ± 8.4 % IDcc^–1 and the “peak uptake (Cmax) in liver” value is given as 17.7 ± 0.9 % IDcc^–1. Moreover, in series [2] (uninfected mice), the “elimination half-life (T1/2β)” value is 12.70 min and the “plasma distribution half-life (T1/2α)” value is 0.55 min. In the series on K. pneumoniae, the “PET signal in heat-killed K. pneumoniae inoculated lungs” value is on record as “No visible signal”; the “ex vivo infected/uninfected lung ratio” value is around 5.7 fold; the “ROI-derived infected/uninfected lung ratio” value was ~6 fold and ~6.1 fold.
`OC[C@@H](O)[C@@H](O)[C@H](O[C@H]1O[C@H](CO)[C@@H](O)[C@H](O)[C@H]1O)[C@@H]([18F])CO` [[18F]FNT, 2-deoxy-2-[18F]fluoro-D-nigeritol]: the “in vitro stability in human serum” value in series [1] is on record as “intact”. Besides, the “ex vivo residual activity in organs versus [18F]FDS” value in series [2] is on record as “significantly lower residual activity”. In series [2] (uninfected mice, i.v.), the “area under the curve (AUC0→90min) in bladder” value is 44418.3 ± 950.9 % IDcc^–1·min, the “area under the curve (AUC0→90min) in liver” value stood at 105.7 ± 4.0 % IDcc^–1·min, the “peak uptake (Cmax) in bladder” value is 606.8 ± 9.0 % IDcc^–1 and the “peak uptake (Cmax) in kidneys” value is 104.5 ± 14.2 % IDcc^–1. In series [2] (uninfected mice, i.v.), the “peak uptake (Cmax) in liver” value stood at 19.2 ± 0.9 % IDcc^–1. Further, in series [2] (uninfected mice), the “elimination half-life (T1/2β)” value came out at 14.07 min and the “plasma distribution half-life (T1/2α)” value is on record as 0.52 min. In addition, in the series on K. pneumoniae, the “PET signal in heat-killed K. pneumoniae inoculated lungs” value is given as “No visible signal”; the “ex vivo infected/uninfected lung ratio” value is around 5.7 fold; the “ROI-derived infected/uninfected lung ratio” value is ~6 fold and ~5.9 fold.

These data come from paper PMC12728616, “Regioselective Glycosylation of Fluorine-18-Labeled Sorbitol for Enhanced Bacterial Detection In Vivo Using PET” (JACS Au, 2025).
